In US11021481B2, “Substituted isoindolin-1-ones and 2,3-dihydro-1h-pyrrolo[3,4-c]pyridin-1-ones as HPK1 antagonists” (Nimbus Saturn, Inc., priority 2019, dated 2021):
pIC50: −log10 of the molar value. Structures can show the parent of a compound that is named as a salt.

Target: HPK1 (Homo sapiens (Human), UniProt Q92918)
Experiment: HPK1 biochemical enzyme assay (microfluidic mobility shift assay)
Conditions: 1.5 nM HPK1, ATP 1 mM final, 30 min preincubation, 60 min at RT, Caliper EZ Reader; read-out: HPK1 1000UMATP caliper IC50
Summary of the method: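 Ten-point compound titrations (top 3 μM final) preincubated 30 min with HPK1 and substrate, then reaction started with 1 mM ATP and 1 μM substrate, 5 mM MgCl2. After 60 min at RT, reaction terminated and product measured by microfluidic mobility shift.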

Chain of HPK1 (Q92918 whole entry): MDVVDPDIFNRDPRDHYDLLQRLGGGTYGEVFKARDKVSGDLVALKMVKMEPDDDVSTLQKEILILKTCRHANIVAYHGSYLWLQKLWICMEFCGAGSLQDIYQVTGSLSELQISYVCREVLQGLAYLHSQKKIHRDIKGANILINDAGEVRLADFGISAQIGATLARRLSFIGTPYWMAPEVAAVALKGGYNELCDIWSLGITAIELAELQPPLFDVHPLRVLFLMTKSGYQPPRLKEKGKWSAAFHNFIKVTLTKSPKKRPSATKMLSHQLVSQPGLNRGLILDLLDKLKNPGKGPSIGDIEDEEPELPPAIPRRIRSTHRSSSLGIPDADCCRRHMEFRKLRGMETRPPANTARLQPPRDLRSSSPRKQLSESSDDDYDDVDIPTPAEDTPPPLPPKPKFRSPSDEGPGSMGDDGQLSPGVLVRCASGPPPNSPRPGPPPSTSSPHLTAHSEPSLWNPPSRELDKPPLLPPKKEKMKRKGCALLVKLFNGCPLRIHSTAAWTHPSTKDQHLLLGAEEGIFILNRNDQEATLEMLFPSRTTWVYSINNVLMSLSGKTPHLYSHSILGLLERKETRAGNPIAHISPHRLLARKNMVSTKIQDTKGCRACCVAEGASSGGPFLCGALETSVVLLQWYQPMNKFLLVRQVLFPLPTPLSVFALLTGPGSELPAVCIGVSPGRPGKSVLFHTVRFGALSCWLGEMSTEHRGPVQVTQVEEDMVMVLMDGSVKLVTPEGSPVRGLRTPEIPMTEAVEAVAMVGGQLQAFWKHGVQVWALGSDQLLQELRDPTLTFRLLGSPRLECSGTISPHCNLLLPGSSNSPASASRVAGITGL

SMILES	pIC50
O=C1NCc2c(-c3cnc4cnccn34)ccc(Nc3ccc(N4CCC[C@H](O)CC4)cn3)c21 [I-328, (S)-7-((5-(4-hydroxyazepan-1-yl)pyridin-2-yl)amino)-4-(imidazo[1,2-a]pyrazin-3-yl)isoindolin-1-one]	> 7.00
CN1CCN(c2ccc(Nc3ccc(-c4ccnc5c4cnn5C)c4c3C(=O)NC4)nc2)CC1 [I-61, 7-[[5-(4-methylpiperazn-1-yl)-2-pyridyl]amino]-4-(1-methylpyrazolo [3,4-b]pyridin-4-yl)isoindolin-1-one]	6.00 to 7.00
Cc1ccn2c(-c3ccc(Nc4ccc(N5CCNCC5)cn4)c4c3CNC4=O)cnc2c1 [I-72, 4-(7-methylimidazo [1,2-a]pyridin-3-yl)-7-[(5-piperazin-1-yl-2-pyridyl)amino] isoindolin-1-one]	> 7.00
O=C1NCc2c(-c3cnn4ccccc34)ccc(Nc3ccc(N4CCC(O)CC4)cn3)c21 [I-131, 7-[[5-(4-hydroxy-1-piperidyl)-2-pyridyl]amino]-4-pyrazolo[1,5-a]pyridin-3-yl-isoindolin-1-one]	> 7.00
O=C1NCc2c(-c3cnc4cc(F)ccn34)ccc(Nc3ccc(N4CCOCC4)cn3)c21 [I-159, 4-(7-fluoroimidazo [1,2-a]pyridin-3-yl)-7-[(5-morpholino-2-pyridyl)amino] isoindolin-1-one]	> 7.00
CN1CCN(c2ccc(Nc3ccc(-c4cnn5ccncc45)c4c3C(=O)NC4)nc2)CC1 [I-113, 7-[[5-(4-methylpiperazin-1-yl)-2-pyridyl]amino]-4-pyrazolo[1,5-a]pyrazin-3-yl-isoindolin-1-one]	> 7.00
CN1CCN(c2ccc(Nc3cnc(-c4cn(C)c5ncccc45)c4c3C(=O)NC4)nc2)CC1 [I-14, 7-[[5-(4-methylpiperazin-1-yl)-2-pyridyl]amino]-4-(1-methylpyrrolo [2,3-b]pyridin-3-yl)-2,3-dihydropyrrolo [3,4-c]pyridin-1-one]	< 6.00
Cn1ccc2c(-c3ncc(Nc4cccc(N5CC[C@@H]6CNC[C@@H]65)n4)c4c3CNC4=O)ccnc21 [I-441, 7-((6-((3aR,6aR)-hexahydro-pyrrolo[3,4-b]pyrrol-1(2H)-yl)pyridin-2-yl)amino)-4-(1-methyl-1H-pyrrolo[2,3-b)pyridin-4-yl)-2,3-dihydro-1H-pyrrolo[3,4-c]pyridin-1-one]	6.00 to 7.00
CC(C)(O)[C@H]1CCCN(c2ccc(Nc3cnc(-c4cnn5c4CCCC5)c4c3C(=O)NC4)nc2)C1 [I-355, (S)-7-((5-(3-(2-hydroxy-propan-2-yl)piperidin-1-yl)pyridin-2-yl)amino)-4-(4,5,6,7-tetrahydropyra-zolo[1,5-a]pyridin-3-yl)-2,3-dihydro-1H-pyrrolo[3,4-c]pyridin-1-one]	> 7.00
CNC1(C)CCN(c2ccc(Nc3cnc(-c4ccnc5c4ccn5C)c4c3C(=O)NC4)nc2)CC1 [I-244, 7-[[5-[4-methyl-4-(methylamino)-1-piperidyl]-2-pyridyl]-amino]-4-(1-methylpyrrolo [2,3-b]pyridin-4-yl)-2,3-dihydropyrrolo [3,4-c]pyridin-1-one]	> 7.00
CN1CCN(c2ccc(Nc3ccc(-c4cnc5n4CCNC5)c4c3C(=O)NC4)nc2)CC1 [I-92]	> 7.00
O=C1NCc2c(-c3cnc4cc(F)ccn34)ccc(Nc3ccc(N4CCC(C(=O)O)CC4)cn3)c21 [I-203, l-[6-[[7-(7-fluoroimidazo [1,2-a]pyridin-3-yl)-3-oxo-isoindolin-4-yl]amino]-3-pyridyl]piper-idine-4-carboxylic acid]	> 7.00

Now from value to compound:

pIC50	SMILES
> 7.00	CC(C)NCc1nc(Nc2cnc(-c3ccnc4c3ccn4C)c3c2C(=O)NC3)ccc1C1CCOCC1 [I-844, 7-[[6-[(isopropylamino)-methyl]-5-tetrahydropy-ran-4-yl-2-pyridyl]amino]-4-(1-methylpyrrolo [2,3-b]pyridin-4-yl)-2,3-dihydropyrrolo [3,4-c]pyridin-1-one Formic acid salt]
> 7.00	COC[C@H]1CN(c2ccc(Nc3ccc(-c4cnc5c(F)c(C)ccn45)c4c3C(=O)NC4)nc2)CCO1 [I-580, (R)-4-(8-fluoro-7-methylimidazo [1,2-a]pyridin-3-yl)-7-((5-(2-(methoxymeth-yl)morpho-lino)pyridin-2-yl)amino)isoin-dolin-1-one]
6.00 to 7.00	Cn1ccc2c(-c3ncc(Nc4cccc(N5C[C@H](CN6CCC6)CCC5=O)n4)c4c3CNC4=O)ccnc21 [I-689, (S)-7-((6-(5-(azetidin-1-ylmethyl)-2-oxopiperidin-1-yl)pyridin-2-yl)amino)-4-(1-methyl-1H-pyrrolo[2,3-b]pyridin-4-yl)-2,3-dihydro-1H-pyrrolo[3,4-c]pyridin-1-one]
< 6.00	O=C1NCc2c(-c3ccnc4cnccc34)ncc(Nc3ccc(N4CCC(O)CC4)cn3)c21 [I-592, 7-((5-(4-hydroxypiperidin-1-yl)pyridin-2-yl)amino)-4-(1,7-naphthyridin-4-yl)-2,3-dihydro-1H-pyrrolo[3,4-c]pyridin-1-one]
> 7.00	COCC1CN(c2ccc(Nc3ccc(-c4cnc5nc(C)ccn45)c4c3C(=O)NC4)nc2)CCO1 (stereo in doubt) [I-629, (S)-7-((5-(2-(methoxymeth-yl)morpho-lino)pyridin-2-yl)amino)-4-(7-methylimidazo [1,2-a]pyrimidin-3-yl) isoindolin-1-one]
> 7.00	CN(C)C1CN(c2nc(Nc3ccc(-c4cnc5cc(F)ccn45)c4c3C(=O)NC4)ccc2C2CCOC2)C1 (stereo in doubt) [I-786, (S)-7-((6-(3-(dimctliylami-no)azetidin-1-yl)-5-(tetrahydrofur-an-3-yl)pyridin-2-yl)amino)-4-(7-fluoroimidazo [1,2-a]pyridin-3-yl)isoindolin-1-one]
> 7.00	CC(C)([C@@H]1CN(c2ccc(Nc3ccc(-c4cnc5cc(F)ccn45)c4c3C(=O)NC4)nc2)CCO1)N1CC(O)C1 [I-697, (S)-4-(7-fluoroimidazo [1,2-a]pyridin-3-yl)-7-((5-(2-(2-(3-hydroxyazetidin-1-yl)propan-2-yl)morpholino)pyridin-2-yl)amino)isoin-dolin-1-one]
> 7.00	Cc1ccn2c(-c3ccc(Nc4ccc(N5CC[C@H](F)[C@@H](O)C5)cn4)c4c3CNC4=O)cnc2c1F [I-584, 7-((5-((3S.4S)-4-fluoro-3-hydroxypiperidin-1-yl)pyridin-2-yl)amino)-4-(8-fluoro-7-methylimidazo [1,2-a]pyridin-3-yl)isoindolin-1-one]
> 7.00	CNC(C)(C)[C@H]1CN(c2ccc(Nc3ccc(-c4cnc5cc(F)ccn45)c4c3C(=O)NC4)nc2)CCO1 (single isomer, unassigned) [I-676]
> 7.00	Cc1ccn2c(-c3ccc(Nc4ccc(C(C)(C)C(=O)NCCN(C)C)cn4)c4c3CNC4=O)cnc2c1F [I-456, N-[2-(dimethylami-no)ethyl]-2-[6-[[7-(8-fluoro-7-methyl-imidazo[1,2-a]pyridin-3-yl)-3-oxo-isoindolin-4-yl]amino]-3-pyridyl]-2-methyl-propanamide]
> 7.00	COCC1CN(c2ccc(Nc3ccc(-c4ncnc5c4ccn5C)c4c3C(=O)NC4)nc2)CCO1 (stereo in doubt) [I-649, (R)-7-((5-(2-(methylmeth-yl)morpho-lino)pyridin-2-yl)amino)-4-(7-methyl-7]-4-pyrrolo[2,3-d]pyrimidin-4-yl)isoindolin-1-one]
